Data on 1 compound can be found in patent US11986530B2, “Drug composition for parenteral administration” (THERABIOPHARMA INC., priority 2016, dated 2024).

The subject of data set [1] is colorectal cancer cells derived from adult human colon HCT116. Kind of data set: Anti-tumor effect by intravenous administration of curcumin conjugates (tumor size, HCT116 transplanted mice). It is filed as in vivo, BALB/cAnNcr j-nu/nu (homo) mice. Conditions: HCT116 mouse. The text has this:
1×10^7 or 4×10^6 colorectal cancer cells derived from adult human […] colon HCT116 (ATCC No. CCL-247) were transplanted subcutaneously into the flank of each of the test animals by using a 27 G injection needle.
In this regard, in the control group, mice to which water for injection excluding curcumin monoglucuronide had been administered intravenously were used.
For the tumor size, after each lapse of 0, 4, 7, 11 and 14 days from the start of administration or after each lapse of 0, 4, 7, 11, 14, 18 and 21 days from the start of administration, the length, width and height of the tumor were measured by using a vernier caliper, and the tumor size was calculated by the following equation. Tumor size (mm^3)=length×width×height×0.5 (5) Concentration of Curcumin Conjugates and Free Curcumin in Tumor Tissue

Data set [2] in a line: Serum biochemical test (liver and biliary diseases set, 21 items) in tumor-bearing mice. It is filed as in vivo, BALB/cAnNcr j-nu/nu (homo) mice. Particulars: 30 mg/kg i.v., 14 days from start of administration.
The nature of a further data set: in vivo. Conditions: mouse. The method, then:
Intravenous administration of a single dose of curcumin monoglucuronide was performed to each of the mice at each dose of 125, 250, 500 and 1000 mg/kg, and the toxicity thereof was evaluated. In this regard, the number of mice in each group was set to be n=5.
As the test animals, 6-week old Slc:ICR mice (male, with a body weight of 27 to 31 g, Japan SLC, Inc.), which had been purchased and acclimated to the environment for around 6 days, was used.
Observation of the state of each of the mice was performed by recording the type, extent, expression time, recovery time, and death (death detection) time of all of the toxic signs observed macroscopically.
Observation was performed at a time immediately after administration, at a time after each lapse of 30 minutes, 1, 2, 4 and 6 hours from the start of administration, and once a day from the day following the date of administration (up to after the lapse of 14 days from the start of administration).
The body weight was measured by using an electronic balance (UW4200S, Shimadzu Corporation) immediately before administration, and after each lapse of 1, 3, 7, 10 and 14 days from the administration.
Blood biochemical test was performed by the following method. That is, mice were fasted for 4 hours or more after the end of the mouse observation period (after the lapse of 14 days from the start of administration), the fasted mice were subjected to laparotomy under anesthesia by intraperitoneal administration of pentobarbital sodium, and the blood was collected from the abdominal aorta (the amount of the blood was 0.6 mL or more). Next, the collected blood was anti-coagulated with heparin sodium, and then the anti-coagulated blood was centrifuged (4° C., 3000 rpm, for 10 minutes) to obtain the plasma, and transaminase (AST and ALT) contained in the plasma was measured.
After the end of the observation period (after the lapse of 14 days from the start of administration), autopsy was performed as follows: blood was collected from each of the mice under anesthesia with pentobarbital sodium; and then the mice were sacrificed by exsanguination by cutting the abdominal aorta and the caudal vena; each of the sacrificed mice was dissected according to a pathological technique; and the cranium, the intrathoracic organs, the intraperitoneal organs, and the tissues thereof were observed macroscopically.

For the next data set, the system named is β-glucuronidase. Conditions: 10 μL of 2.81 μg/mL substrate, pH 5.0, 37° C., 1 hour, n=3.
The next data set concerns KBM-5. Conditions: KBM-5, in vitro; cited from earlier work.
A further data set has as its system Jurkat cells. Particulars: in vitro; cited from earlier work.
For the next data set, the system named is U266. Conditions: U266, in vitro; cited from earlier work.
The next data set has as its system A549. Conditions: A549, in vitro; cited from earlier work.
The subject of data set [3] is human hepatocellular carcinoma cell lines (HepG2 cells). Particulars: cited from earlier work.
Data set [4] shares this test system. Conditions: compared to free curcumin; cited from earlier work.

Experimental for β-glucuronidase: In this regard, as a control, curcumin monoglucuronide was used for the examination.
In addition, as the curcumin diglucuronide, commercially available curcumin diglucuronide (manufactured by SynInnova Laboratories Inc.) was used.
Next, into the resultant mixture, 0.5 mL of chloroform was added, and the mixture was stirred for 1 minute with a vortex mixer, and then the stirred mixture was treated for 15 minutes by using an ultrasonic generator, and the treated mixture was fractionated into a chloroform layer and a water layer by centrifugation (10,000×g, for 5 minutes, at room temperature). Further, this fractionation process was repeated twice. After that, the chloroform layer was collected, and dried and solidified by distilling off the solvent with a vacuum centrifugal concentrator, and to the dried and solidified matter, 100 μL of 50% (v/v) methanol was added, and then the resultant mixture was centrifuged (10,000×g, for 5 minutes, at room temperature) to collect a supernatant liquid, and the collected supernatant liquid was taken as an enzyme-treated sample.
In 2 μL of the enzyme-treated sample prepared in the above (2), free curcumin was measured by the method described in “b.

Take `COc1cc(/C=C/C(O)=C/C(=O)/C=C/c2ccc(O[C@@H]3O[C@H](C(=O)O)[C@@H](O)[C@H](O)[C@H]3O)c(OC)c2)ccc1O` [curcumin monoglucuronide]: the tumor size in data set [1] (30 mg/kg i.v., 0 day from start of administration) came to 142.9±45.5 mm^3; in [1] (30 mg/kg i.v., 4 days), 275.1±88.1 mm^3; in data set [1] (30 mg/kg i.v., 11 days) it was 489.4±147.8 mm^3; in data set [1] (30 mg/kg i.v., 14 days), 581.2±197.4 mm^3; in [1] (90 mg/kg i.v., 0 day from start of administration), 17.4±3.2 mm^3; in data set [1] (90 mg/kg i.v., 4 days), 23.6±8.4 mm^3. Further, the tumor size in data set [1] (90 mg/kg i.v., 7 days) worked out at 42.6±16.6 mm^3; in data set [1] (90 mg/kg i.v., 11 days) it was 77.5±28.9 mm^3; in data set [1] (90 mg/kg i.v., 14 days), 122.9±42.6 mm^3; in [1] (90 mg/kg i.v., 18 days) it was 204.4±76.2 mm^3; in [1] (90 mg/kg i.v., 21 days), 190.2±70.1 mm^3. In data set [2], the “serum biochemical test values (liver and biliary diseases set, 21 items)” value is recorded as “no abnormality was found in the test values”. For the same compound, the “prone position and reduction of locomotor activity, number of mice” value in “in vivo” (male, Slc:ICR) stood at 5. For the same compound, the “reduction of locomotor activity, number of mice” value in the data set “in vivo” (male, Slc:ICR) worked out at 5. In the data set “in vivo” (male, Slc:ICR, iv), this compound displayed an LD50 at 14 days of 500 to 1000 mg/kg. For the same compound, the autopsy findings result in “in vivo” is “no abnormality was found”. Also, in the data set “in vivo”, the “state of mice by macroscopy” value is “no abnormality was found”. The “concentration of the curcumin contained in the enzyme-treated sample” value in the data set with β-glucuronidase is 159.1 ± 6.1 ng/mL. In addition, the “cell growth inhibitory effect” value was “there is no such an effect” with KBM-5; “there is no such an effect” in the data set on Jurkat cells; “there is no such an effect” with U266; “there is no such an effect” in the data set with A549; “the effect was not found” in data set [3]. Moreover, in data set [4], the “influence on the gene expression” value was “the action was extremely low”.
